Results on one compound are retold here after patent US8703066B2, “Sterilization system and method” (Noxilizer, Inc., priority 2004, dated 2014).

For one assay, the system named is cocktail of bacteria. The assay can be described thus: Humidity effects: sterilization of sealed and unsealed dry stainless steel coupons. It is filed as cell-based. To be noted: 15 min sterilization cycle at 1 ATM, 2/2 trials. On the procedure: Several humidifying paradigms and the ability to sterilize through a gas sterilization seal pouch is tested. A cocktail of bacteria is used, all grown to about 10^8 CFU/ml and mixed in equal volume. Stainless steel coupons are dipped, allowed to dry, and subject to one of three methods. Method A samples are wrapped in a moist Kimwipe, Method B samples are left dry, and Method C samples are sealed, dry, in a V. Mueller™ Dual Peel Seal Pouch, designed for gas and autoclave sterilizations. Samples from methods B and C are placed in the sterilization chamber with a moist Kimwipe, which is placed in the chamber so as to insure maximal separation of the Kimwipe and the sample to be sterilized. The chamber is re-sealed carefully so as not to disturb the positioning of the samples relative to the Kimwipe. The samples are subject to a 15 min sterilization cycle at 1 ATM, removed under sterile conditions, and the samples are placed in BHI media as described above. Control samples are handled identically except for the chamber being gassed with […]. All controls reached greater than […] total CFU/ml in 24 hrs as determined by ABS595 standardization curves.

In the next assay the test system is B. subtilis (vegetative). The assay can be described thus: Portable system (blood storage container) sterilization of stainless steel coupons. It is filed as cell-based, Bacillus subtilis. To be noted: fifteen minute sterilization cycle; NO from acidified diazeniumdiolate; 1 ATM; stainless steel coupon, at least 10^8 CFU/ml. The text has this:
(§1) Similar to Example 1, a portable system is devised using blood storage containers and other laboratory items. In this construct, a blood storage container (Nexell, Irvine, Calif.; Lifecell PL732 plastic tissue culture flask) serves as the sterilization chamber. It has multiple ports, is easily attached to tubing or other chambers, and is easily cut and heat sealed for insertion and removal of contaminated/sterilized samples. The heat seal is strong and holds well at pressure, even though 1 ATM of pressure is used experimentally. Two 60 ml syringes connected to each other and a line of tubing by a three-way stopcock are employed to mix acidic buffer in one syringe with NO-releasing diazeniumdiolate in the other syringe. The tubing is connected to the blood container/sterilization chamber.
(§2) The stopcock is turned so that the acidic buffer can be added to the syringe containing the diazeniumdiolate. The valve is immediately closed to the buffer syringe and opened to the sterilization chamber. The 300 cc sterilization chamber inflates in about 15 seconds. Experiments are performed as described above, except that the devised system is used instead of the pressure vessel.
The test organisms are cultured overnight in BHI. The cultures contained at least 10^8 CFU/ml (100-fold greater than FDA testing guidelines) based on standardized ABS595 curves for each organism. […]

Assay [1] deals with sporulated B. subtilis var. niger. The assay can be described thus: Sterilization with varying quantities of delivered nitric oxide, contaminated stainless steel strips. It is filed as cell-based. Particulars: 5%, 2.5% and 1% NO in air, five minutes, culture in LB 48 hours then plating. An excerpt:
A blood storage container (Nexell, Irvine, Calif.; Lifecell PL732 plastic tissue culture flask) is used as the sterilization chamber. Strips of stainless steel are dipped in 10^6 CFU/ml sporulated B. subtilis var. niger (as determined by ABS595 standardization curves). The strips are allowed to air dry, placed in the sterilization chamber, and then the sterilization chamber is heat sealed. The sterilization chamber is evacuated using a syringe and controlling air flow with the sterilization chamber valves. A known quantity of air is added to the vessel using a graduated syringe.
An NO-generating donor compound is placed in a 7 cc gas generation chamber. The gas generation chamber is attached to the storage container through luer lock connectors. The liquid activator, 3.0N HCl is added to the gas generation chamber and the generated gas is allowed to flow into the sterilization chamber. After a brief generation period, the gas is sealed in the sterilization chamber using a compression valve.
Varying quantities of NO gas, namely 10%, 5%, 2.5% and 1% NO, are tested for their efficacy in the sterilization chamber. The quantity (%) of NO gas generated and added to the sterilization chamber is calculated from the number of moles of NO required to be generated to result in the desired percentage of NO. […]

The test system of assay [2] is bacterial cocktail containing B. subtilis, S. marcesens, and S. epidermides. The assay can be described thus: Sterilization of medical materials (tubing, needle). In kind it is cell-based. Particulars: 15 min sterilization cycle, about 10^8 total CFU/ml. On the procedure: An additional study is performed to test medically relevant materials such as needles and plastic tubing. Teflon (⅛′ ID), polyethylene (1.77 mm ID), vinyl (0.5 mm ID) tubing and a 30 ga. disposable needle are dipped in a bacterial cocktail containing B. subtilis, S. marcesens, and S. epidermides at about 10^8 total CFU/ml The samples are placed in the sterilization chamber and sealed. In each case, the lumen of the tubing or contained at least some visually confirmed inoculum. […] The controls for each material reached at least 10^6 total CFU/ml in 24 hrs as determined by ABS595 standardization curves.

In assay [3] the test system is Bacillus subtilis var niger 9372. The assay can be described thus: Pressure vessel sterilization of contaminated stainless steel coupons with NO gas. In kind it is cell-based. To be noted: five minute sterilization cycle; pure NO at atmospheric pressure; stainless steel coupons dipped in at least 10^8 CFU/ml. The text has this:
(§3) A glass pressure vessel is connected to a scrubbed NO gas tank source. The pressure vessel is purged five times with Argon gas to eliminate atmospheric oxygen (preventing formation of NO2.) and an additional three purges of NO are used to ensure a pure NO atmosphere and consistent results of bactericidal activity. To test the sterilization method: Bacillus subtilis var niger 9372 is used (after obtaining >80% endospore formation; a standard for ethylene oxide and autoclave test sterilization), as well as organisms commonly found on the epidermis: Staphylococcus aureus (str 21769) and Staphylococcus epidermides (str 21977), and the enteric organisms: Klebsiella pneumoniae (str 21991) and Serratia marcesens (str 21140). This particular Serratia strain has been found in previous studies to be one of the most resistant bacteria to the bactericidal effects of NO in culture (Raulli et al., 2002).
(§4) The organisms are cultured overnight in BHI. The cultures contained at least 10^8 CFU/ml based on standardized ABS595 curves for each organism. Stainless steel coupons, 3×1 cm, are dipped in the cultures, and either dried in ambient air first or placed in the pressure vessel still wet from the culture dip. The coupons are exposed to NO gas at atmospheric pressure for decreasing time periods starting with 45 min and working back to 5 min. Control samples are handled identically, except the pressure vessel was gassed with nitrogen.
(§5) The sealed vessel is carefully opened in a laminar flow hood after all the NO had been purged with Argon. The samples are removed aseptically with sterilized tongs and placed in culture tubes containing sterile BHI media. The samples are incubated in a vigorously shaking waterbath at 35° C. The samples are observed (digitally photographed) 24 hrs later, placed back in the waterbath and are measured for absorbance 72 hrs later. The controls had >10^8 CFU/ml after 24 hrs.

In assay [4] the test system is Staphylococcus epidermides (str 21977). Described as above. To be noted: five minute sterilization cycle; pure NO at atmospheric pressure; stainless steel coupons dipped in at least 10^8 CFU/ml. In kind it is cell-based.
Source text: as §3, §4, §5

Assay [5] concerns Staphylococcus aureus (str 21769). The assay is described as above. In kind it is cell-based. To be noted: five minute sterilization cycle; pure NO at atmospheric pressure; stainless steel coupons dipped in at least 10^8 CFU/ml.
Source text: as §3, §4, §5

The subject of assay [6] is Klebsiella pneumoniae (str 21991). Described as above. It is filed as cell-based. Particulars: five minute sterilization cycle; pure NO at atmospheric pressure; stainless steel coupons dipped in at least 10^8 CFU/ml.
Source text: as §3, §4, §5

Assay [7] relates to Serratia marcesens (str 21140). The assay is described as above. In kind it is cell-based. Particulars: five minute sterilization cycle; pure NO at atmospheric pressure; stainless steel coupons dipped in at least 10^8 CFU/ml.
Source text: as §3, §4, §5

In a further assay the test system is Serratia marcesens. The assay can be described thus: Portable system (blood storage container) sterilization of stainless steel coupons. It is filed as cell-based. To be noted: fifteen minute sterilization cycle; NO from acidified diazeniumdiolate; 1 ATM; stainless steel coupon, at least 10^8 CFU/ml.
Source text: as §1, §2
(§6) The test organisms are cultured overnight in BHI. The cultures contained at least 10^8 CFU/ml (100-fold greater than FDA testing guidelines) based on standardized ABS595 curves for each organism. Stainless steel coupons, 3×1 cm, are dipped in the cultures, and either dried in ambient air first or placed in the pressure vessel still wet from the culture dip. The dried samples are dipped in sterile BHI media before being placed in the sterilization chamber.

In assay [8] the test system is Bacillus subtilis (spore). The description is as above. It is filed as cell-based. Particulars: fifteen minute sterilization cycle; NO from acidified diazeniumdiolate; 1 ATM; stainless steel coupon, at least 10^8 CFU/ml.
Source text: as §1, §2, §6

The test system of assay [9] is Staphylococcus epidermides. The assay is described as above. It is filed as cell-based. Particulars: fifteen minute sterilization cycle; NO from acidified diazeniumdiolate; 1 ATM; stainless steel coupon, at least 10^8 CFU/ml.
Source text: as §1, §2, §6

With `[N]=O` [NO, nitric oxide], the “Killed (trials)” value in the assay with cocktail of bacteria (Method A Moist Kimwipe Wrap) was “Killed”; in the assay on cocktail of bacteria (Method B Dry sample, moist Kimwipe apart in chamber), “Killed”; in the assay on cocktail of bacteria (Method C Dry, Sealed Sample in Dual Peel Seal Pouch, moist Kimwipe apart in chamber) it was “Killed”; in the assay with B. subtilis (vegetative), 2/2 Killed; in assay [2] (Disposable Needle 30 ga.), 2/2 Killed; in assay [2] (Polyethylene Tubing 1.77 mm ID), 2/2 Killed. Besides, the “Killed (trials)” value in [2] (Teflon Tubing 1/8' ID) is given as 2/2 Killed; in [2] (Vinyl Tubing 0.5 mm ID), 2/2 Killed; in the assay with Serratia marcesens, 3/3 Killed; in assay [8] it was 2/2 Killed; in [9], 3/3 Killed. Further, the “killing of 10^6 CFU/ml sporulated B. subtilis var. niger” value in [1] is given as “effective at killing”. The “Killed (trials with no bacterial growth / trials)” value in assay [3], in [4], in [5], in assay [6] and in assay [7] was 3/3 Killed each time.
